# In US9061023B2, “Management and treatment of benign prostatic hyperplasia” (CSIR, priority 2007, dated 2015):
# Columns and labels:
# [1] = target: steroid 5α-reductase enzyme (Rattus norvegicus (Rat), UniProt P24008); assay: In vitro steroid 5α-reductase assay (testosterone EIA); assay type: biochemical, Wistar rats; conditions: for IC50: reference compound data
# Procedure: In vitro biological assays of the extracts, compounds and mixtures of compounds were undertaken to determine their inhibition of the enzyme 5α-reductase. The efficacy of each isolated compound as well as the crude spray-dried extract was expressed as percentage inhibitory activity and these compounds were tested at different concentrations.
# The inhibitory effect of the crude extract, the isolated compounds and a mixture of the compounds on the steroid 5α-reductase was investigated and the results are given in Table 2.
# This work was performed at the MDS Pharma Services, Pharmacology Laboratories, Taiwan. The assay was an in vitro evaluation of the ability of an extract or a pure compound to inhibit the steroid 5α-reductase enzyme from metabolizing testosterone into dihydrotestosterone. This is an enzyme-immunoassay (EIA) for quantitative determination of testosterone in human serum or plasma. The significance of this type of inhibition is that it can lead to eradication of benign prostatic hyperplasia (BPH). Two distinct isozymes are found in mice, rats, monkeys and humans: type 1 and II. Each of these isozymes is differentially expressed in tissues and developmental stages. In human, type 1 steroid 5α-reductase is predominant in the sebaceous glands of most regions of skin, including scalp and liver and is responsible for approximately one third of circulating DHT. Inhibitors of steroid 5α-reductase may be of benefit in the treatment of androgenetic alopecia. This is a specific binding assay whereby the biochemical assay results were expressed as percentage inhibition. Finasteride was used as a reference compound in all experiments.
# The method employed was adapted from the scientific literature to maximize reliability and reproducibility^25. The steroid 5α-reductase enzyme was isolated from the liver of Wistar rats. The test compound was incubated with 20 μg/mL of steroid 5α-reductase preparation which contains 1 μM testosterone and 50 μM NADPH in DTT buffer, pH 6.5 for 30 minutes at 37° C. The reaction was stopped by addition of 1N HCl and neutralized by 1N NaOH and testosterone was quantified using a testosterone EIA Kit. Compounds were screened at 10 μM.
# 5α-reductase = conditions: men with smaller prostates, background; cited from earlier work
# [2] = tested on: steroid 5α-reductase enzyme; conditions: reported in literature (ref 18); cited from earlier work
# [3] = DPPH antioxidant screen (radical scavenging capacity)
# Procedure: The antioxidant assay was based on the DPPH assay. DPPH is a radical and when a compound with radical scavenging properties reacts with DPPH, the purple colour disappears and a yellow colour is observed. The decolourisation of a purple colour to a yellow colour is measured by a chromameter. The intensity of the yellow colour gives an indication of antioxidant activity. […] The antioxidant activity was expressed as percentage radical scavenging capacity (RSC). […] This evaluation was carried out at the CSIR, Biosciences, Bioprospecting Platform. The 1,1-diphenyl-2-picrylhydrazyl (DPPH) assay was used to investigate the scavenging properties of extracts and pure compounds. […] This is quantified by the decrease of absorbance at wavelength 515 nm in the spectrophotometer. DPPH(purple)+([…](yellow)+(A·)n^26 Since this was a colorimetric test, the appearance of the yellow colour was measured using a chromameter. The final appearance of a more intense yellow colour was used as a good indication of a radical scavenging ability of the extract or compound and this is directly proportional to its antioxidant activity. The antioxidant activity was directly related to the total amount of phenolics and flavonoids present in that particular extract. This method was sensitive enough to indicate and monitor the presence of phenolic-type compounds. […] Spots with good radical scavenging properties turned yellow and the intensity was measured by a chromameter^5. […] The activity of the compound or extract was measured against the reference compound, epigallocatechin gallate.
# Sequence of steroid 5α-reductase enzyme (Rattus norvegicus (Rat), UniProt P24008) (P24008 whole entry): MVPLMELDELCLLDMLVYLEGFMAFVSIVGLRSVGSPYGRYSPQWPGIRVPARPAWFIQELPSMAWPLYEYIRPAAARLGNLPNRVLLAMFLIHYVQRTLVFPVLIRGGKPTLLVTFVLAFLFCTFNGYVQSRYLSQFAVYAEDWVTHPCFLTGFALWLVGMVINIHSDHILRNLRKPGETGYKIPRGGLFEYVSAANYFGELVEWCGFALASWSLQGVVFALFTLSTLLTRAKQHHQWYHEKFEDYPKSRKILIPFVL
smiles,measurement,setting,value
"CCCCC/C=C\C/C=C\C/C=C\CCCCC(=O)O [γ-Linolenic acid, reference compound]",IC50,[1],14 µM
CC(C)(C)NC(=O)[C@H]1CC[C@H]2[C@@H]3CC[C@H]4NC(=O)C=C[C@]4(C)[C@H]3CC[C@]12C [Finasteride],reduction in erection rate,5α-reductase,up to 8%
same,reduction in semen volume,5α-reductase,4%
same,reduction in sex drive,5α-reductase,6%
same,IC50,[1],0.025 µM
same,inhibition at 0.025 µM,[1]; test concentration 0.025 μM,50%
"COC(=O)c1cc(O)c(O)c(O)c1 [Compound (2), 3,4,5-Trihydroxybenzoic acid methyl ester]",effect against the steroid 5α-reductase enzyme in words,[2],ineffective
"O=C(O[C@@H]1Cc2c(O)cc(O)cc2O[C@@H]1c1cc(O)c(O)c(O)c1)c1cc(O)c(O)c(O)c1 [Epigallocatechin gallate, reference compound]",% RSC,[3]; 0.01 ppm,8%
same,% RSC,[3]; 0.1 ppm,8%
same,% RSC,[3]; 1 ppm,61%
same,% RSC,[3]; 10 ppm,95%
same,% RSC,[3]; 100 ppm,95%
"O=c1c(O)c(-c2ccc(O)c(OC3OC(CO)C(O)C(O)C3O)c2)oc2cc(O)cc(O)c12 (centres unmarked) [Compound (3), 3,5,7-Trihydroxy-2-[4-hydroxy-3-(3,4,5-trihydroxy-6-hydroxymethyltetrahydropyran-2-yloxy)-phenyl]-chromen-4-one]",% RSC,[3]; 6.25 ppm,41%
same,% RSC,[3]; 12.5 ppm,77%
same,% RSC,[3]; 25 ppm,95%
same,% RSC,[3]; 50 ppm,95%
same,% RSC,[3]; 100 ppm,95%
same,inhibition at 1 µM,[1]; test concentration 1 μM,-9%
"O=C(OC1Cc2c(O)cc(O)cc2OC1c1cc(O)cc(O)c1)c1cc(O)c(O)c(O)c1 (centres unmarked) [Compound (4), 3,4,5-Trihydroxybenzoic acid 2-(3,5-dihydroxy-phenyl)-5,7-dihydroxy-chroman-3-yl ester]",inhibition at 1 µM,[1]; test concentration 1 μM,-2%
"O=C1c2c(O)cc(O)cc2O[C@H](c2ccc(O)c(O[C@@H]3O[C@H](CO)[C@@H](O)[C@H](O)[C@H]3O)c2)[C@H]1O [Compound (5), (2R,3R)-,2-[3-(β-D-glucopyranosyloxy)-4-hydroxy-phenyl]-2,3-dihydro-3,5,7-trihydroxy-,4H-1-benzo-pyran-4-one]",% RSC,[3]; 6.25 ppm,10%
same,% RSC,[3]; 12.5 ppm,8%
same,% RSC,[3]; 25 ppm,10%
same,% RSC,[3]; 50 ppm,13%
same,% RSC,[3]; 100 ppm,21%
same,% inhibition,[1]; test concentration 1 μM,3%
"O=C(O)c1cc(O)c(O)c(O)c1 [Compound (1), 3,4,5-Trihydroxybenzoic acid]",effect against the steroid 5α-reductase enzyme in words,[2],ineffective
